From BindingDB's records for doi:10.1021/acsmedchemlett.9b00051 (Ajinomoto, 2019)

Key:
[1] = Positive allosteric modulator activity at human T1R2/T1R3 expressed in PEAKrapid cells assessed as potentiation of sucrose-induced intracellular calcium influx by measuring sucrose EC50 at 30 uM measured for 120 secs by fluorescence based assay (Rvb = 31.7 mM)
[2] = Positive allosteric modulator activity at human T1R2/T1R3 expressed in PEAKrapid cells assessed as potentiation of sucrose-induced intracellular calcium influx by measuring sucrose EC50 at 50 uM measured for 120 secs by fluorescence based assay (Rvb = 31.7 mM)

EC50 [1] [mM] | EC50 [2] [mM] | Structure (SMILES)
18.4 |  | CC(C)[C@@H](CC(=O)Nc1cncc(C(=O)O)c1N)NC(=O)[C@@H](N)C1CCCCC1
10.2 |  | C[C@@H](CC(=O)Nc1cncc(C(=O)O)c1N)NC(=O)[C@@H](N)C1CCCCC1
 | 21 | Nc1c(C(=O)O)cncc1-c1cccs1
26.5 |  | CC(C)CNC(=O)C(=O)NCc1ccc(-c2cncc(C(=O)O)c2N)o1
22.1 |  | CC(C)C(=O)NCc1ccc(-c2cncc(C(=O)O)c2N)o1
10.5 |  | CC(C)[C@@H](CCC(=O)Nc1cncc(C(=O)O)c1N)NC(=O)[C@@H](N)C1CCCCC1
11.1 |  | CC(C)C[C@H](N)C(=O)NCc1ccc(-c2cncc(C(=O)O)c2N)o1
22.7 |  | CC(C)C[C@@H](CC(=O)Nc1cncc(C(=O)O)c1N)NC(=O)[C@@H](N)C1CCCCC1

Second part, the molecule before the results:

Structure (SMILES) | EC50 [1] [mM] | EC50 [2] [mM]
CC(C)(CC(=O)Nc1cncc(C(=O)O)c1N)NC(=O)[C@@H](N)C1CCCCC1 | 2.2 | 
Nc1c(NC(=O)CCCNC(=O)[C@@H](N)C2CCCCC2)cncc1C(=O)O | 16.2 | 
Nc1c(NC(=O)CCCCNC(=O)[C@@H](N)C2CCCCC2)cncc1C(=O)O | 7.8 | 
Nc1c(C(=O)O)cncc1-c1ccc(CNC(=O)[C@@H](N)C2CCCCC2)o1 | 5.8 | 
Nc1c(C(=O)O)cncc1-c1ccccc1 |  | 21.5
Cc1nc2ccccc2c(N)c1C(=O)O | 15.9 | 
CC[C@H](C)[C@H](N)C(=O)NCc1ccc(-c2cncc(C(=O)O)c2N)o1 | 10 | 
CC(C)CNC(=O)NCc1ccc(-c2cncc(C(=O)O)c2N)o1 | 21.6 | 
Cc1nc2cccc(OCC(C)(C)C(=O)NC(C)C)c2c(N)c1C(=O)O | 0.6 | 
CC(C)[C@H](N)C(=O)NCc1ccc(-c2cncc(C(=O)O)c2N)o1 | 14.6 | 
CC(C)CC(=O)NCc1ccc(-c2cncc(C(=O)O)c2N)o1 | 18.3 | 
CC[C@H](C)[C@@H](CCC(=O)Nc1cncc(C(=O)O)c1N)NC(=O)[C@@H](N)C1CCCCC1 | 8.9 | 
Nc1c(NC(=O)CCCCCCNC(=O)[C@@H](N)C2CCCCC2)cncc1C(=O)O | 20.2 | 
Nc1c(C(=O)O)cncc1-c1ccco1 |  | 16.8
CC(=O)NCc1ccc(-c2cncc(C(=O)O)c2N)o1 | 27.1 | 
Nc1c(NC(=O)CC[C@H](Cc2ccccc2)NC(=O)[C@@H](N)C2CCCCC2)cncc1C(=O)O | 8.5 | 
CC(C)(C)OC(=O)NCc1ccc(-c2cncc(C(=O)O)c2N)o1 | 24.5 | 
